Laboratory results taken from PubChem BioAssay (NCI).
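Growth conditions: 96-well plates. Treatment: test compound, 48 hours, 5 concentrations. Analysis: linear interpolation between bracketing concentrations; unreached endpoints set to highest concentration. Here, GI50 denotes the concentration required for 50% inhibition of growth. TGI: total growth inhibition.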

How the values were obtained:
Experiment in all cases: DTP human tumour cell line panel, 48 h
HL-60(TB) leukemia = test system: HL-60(TB) leukemia
786-0 renal = test system: 786-0 renal
A549 NSCLC = test system: A549 NSCLC
HOP-92 NSCLC = test system: HOP-92 NSCLC
CAKI-1 renal = test system: CAKI-1 renal
RPMI-8226 leukemia = test system: RPMI-8226 leukemia
HS 578T breast = test system: HS 578T breast
SN12C renal = test system: SN12C renal
UACC-257 melanoma = test system: UACC-257 melanoma
COLO 205 colon = test system: COLO 205 colon
NCI-H23 lung = test system: NCI-H23 lung
MOLT-4 leukemia = test system: MOLT-4 leukemia
KM12 colon = test system: KM12 colon
K-562 leukemia = test system: K-562 leukemia
OVCAR-5 ovarian = test system: OVCAR-5 ovarian
EKVX NSCLC = test system: EKVX NSCLC
SF-268 CNS = test system: SF-268 CNS
SR leukemia = test system: SR leukemia
SK-OV-3 ovarian = test system: SK-OV-3 ovarian
SK-MEL-28 melanoma = test system: SK-MEL-28 melanoma
NCI-H522 lung = test system: NCI-H522 lung
IGROV1 ovarian = test system: IGROV1 ovarian
RXF 393 renal = test system: RXF 393 renal
OVCAR-8 ovarian = test system: OVCAR-8 ovarian
PC-3 prostate = test system: PC-3 prostate
UACC-62 melanoma = test system: UACC-62 melanoma
CCRF-CEM leukemia = test system: CCRF-CEM leukemia
NCI/ADR-RES ovarian = test system: NCI/ADR-RES ovarian
T-47D breast = test system: T-47D breast
TK-10 renal = test system: TK-10 renal
OVCAR-3 ovarian = test system: OVCAR-3 ovarian
SW-620 colon = test system: SW-620 colon
SNB-75 CNS = test system: SNB-75 CNS
HT29 colon = test system: HT29 colon
NCI-H226 lung = test system: NCI-H226 lung
NCI-H460 lung = test system: NCI-H460 lung
M14 melanoma = test system: M14 melanoma
SK-MEL-5 melanoma = test system: SK-MEL-5 melanoma
MCF7 breast = test system: MCF7 breast
MALME-3M melanoma = test system: MALME-3M melanoma
SNB-19 CNS = test system: SNB-19 CNS
HCT-15 colon = test system: HCT-15 colon
MDA-MB-435 = test system: MDA-MB-435
SF-295 CNS = test system: SF-295 CNS
SF-539 CNS = test system: SF-539 CNS
U251 CNS = test system: U251 CNS
HCT-116 colon = test system: HCT-116 colon
SK-MEL-2 melanoma = test system: SK-MEL-2 melanoma
UO-31 renal = test system: UO-31 renal
ACHN renal = test system: ACHN renal
HCC-2998 colon = test system: HCC-2998 colon
HOP-62 NSCLC = test system: HOP-62 NSCLC
MDA-MB-231 breast = test system: MDA-MB-231 breast
BT-549 breast = test system: BT-549 breast
DU-145 prostate = test system: DU-145 prostate
OVCAR-4 ovarian = test system: OVCAR-4 ovarian
A498 renal = test system: A498 renal

Molecule COC1=CC(c2ccc[nH]2)=N/C1=C\c1ccc[nH]1 has a GI50 (HL-60(TB) leukemia) of 67.2 nM, a TGI (HL-60(TB) leukemia) of 3390 nM and a GI50 (786-0 renal) of 192 nM. The TGI (786-0 renal) was 712 nM, the GI50 (A549 NSCLC) was 201 nM and the TGI (A549 NSCLC) was 12600 nM. It also gave a GI50 (HOP-92 NSCLC) of 199 nM, a TGI (HOP-92 NSCLC) of 1260 nM and a GI50 (CAKI-1 renal) of 151 nM. The TGI (CAKI-1 renal) was 3260 nM, the GI50 (RPMI-8226 leukemia) was 65.1 nM and the TGI (RPMI-8226 leukemia) was 570 nM. For the same molecule, the GI50 (HS 578T breast) was 292 nM, the TGI (HS 578T breast) was 3560 nM and the GI50 (SN12C renal) was 433 nM. It also gave a TGI (SN12C renal) of 19700 nM, a GI50 (UACC-257 melanoma) of 375 nM and a TGI (UACC-257 melanoma) of 9240 nM. The GI50 (COLO 205 colon) was 89.7 nM, the TGI (COLO 205 colon) was 5700 nM and the GI50 (NCI-H23 lung) was 2100 nM. The TGI (NCI-H23 lung) was 19100 nM, the GI50 (MOLT-4 leukemia) was 31.7 nM and the TGI (MOLT-4 leukemia) was 33700 nM. For the same molecule, the GI50 (KM12 colon) was 69.8 nM, the TGI (KM12 colon) was 12800 nM and the GI50 (K-562 leukemia) was 273 nM. For the same molecule, the TGI (K-562 leukemia) was > 32700 nM, the GI50 (OVCAR-5 ovarian) was 683 nM and the TGI (OVCAR-5 ovarian) was 13700 nM. It also gave a GI50 (EKVX NSCLC) of 610 nM, a TGI (EKVX NSCLC) of 16400 nM and a GI50 (SF-268 CNS) of 254 nM. For the same molecule, the TGI (SF-268 CNS) was 15900 nM, the GI50 (SR leukemia) was 22.2 nM and the TGI (SR leukemia) was 1310 nM. The GI50 (SK-OV-3 ovarian) was 5370 nM, the TGI (SK-OV-3 ovarian) was 18600 nM and the GI50 (SK-MEL-28 melanoma) was 774 nM. For the same molecule, the TGI (SK-MEL-28 melanoma) was 9350 nM, the GI50 (NCI-H522 lung) was 284 nM and the TGI (NCI-H522 lung) was 2680 nM. For the same molecule, the GI50 (IGROV1 ovarian) was 172 nM, the TGI (IGROV1 ovarian) was 4700 nM and the GI50 (RXF 393 renal) was 378 nM. The TGI (RXF 393 renal) was 2700 nM, the GI50 (OVCAR-8 ovarian) was 232 nM and the TGI (OVCAR-8 ovarian) was 20500 nM. It also gave a GI50 (PC-3 prostate) of 158 nM, a TGI (PC-3 prostate) of 13600 nM and a GI50 (UACC-62 melanoma) of 219 nM. It also gave a TGI (UACC-62 melanoma) of 516 nM, a GI50 (CCRF-CEM leukemia) of 23.1 nM and a TGI (CCRF-CEM leukemia) of 14000 nM. For the same molecule, the GI50 (NCI/ADR-RES ovarian) was 304 nM, the TGI (NCI/ADR-RES ovarian) was 13800 nM and the GI50 (T-47D breast) was 151 nM. It also gave a TGI (T-47D breast) of 1770 nM, a GI50 (TK-10 renal) of 232 nM and a TGI (TK-10 renal) of 7790 nM. For the same molecule, the GI50 (OVCAR-3 ovarian) was 96.4 nM, the TGI (OVCAR-3 ovarian) was 3800 nM and the GI50 (SW-620 colon) was 39.3 nM. The TGI (SW-620 colon) was 13800 nM, the GI50 (SNB-75 CNS) was 188 nM and the TGI (SNB-75 CNS) was 1830 nM. For the same molecule, the GI50 (HT29 colon) was < 13 nM, the TGI (HT29 colon) was 3930 nM and the GI50 (NCI-H226 lung) was 363 nM. It also gave a TGI (NCI-H226 lung) of 12400 nM, a GI50 (NCI-H460 lung) of 59.5 nM and a TGI (NCI-H460 lung) of 10900 nM. It also gave a GI50 (M14 melanoma) of 56.2 nM, a TGI (M14 melanoma) of 629 nM and a GI50 (SK-MEL-5 melanoma) of 64 nM. It also gave a TGI (SK-MEL-5 melanoma) of 261 nM, a GI50 (MCF7 breast) of 346 nM and a TGI (MCF7 breast) of 11900 nM. It also gave a GI50 (MALME-3M melanoma) of 723 nM, a TGI (MALME-3M melanoma) of 4250 nM and a GI50 (SNB-19 CNS) of 3170 nM. For the same molecule, the TGI (SNB-19 CNS) was 18400 nM, the GI50 (HCT-15 colon) was 33.7 nM and the TGI (HCT-15 colon) was 12300 nM. For the same molecule, the GI50 (MDA-MB-435) was 73.7 nM, the TGI (MDA-MB-435) was 4240 nM and the GI50 (SF-295 CNS) was 580 nM. For the same molecule, the TGI (SF-295 CNS) was 3170 nM, the GI50 (SF-539 CNS) was 295 nM and the TGI (SF-539 CNS) was 1870 nM. For the same molecule, the GI50 (U251 CNS) was 379 nM, the TGI (U251 CNS) was 12400 nM and the GI50 (HCT-116 colon) was 23.8 nM. It also gave a GI50 (SK-MEL-2 melanoma) of 218 nM, a TGI (SK-MEL-2 melanoma) of 809 nM and a GI50 (UO-31 renal) of 77.8 nM. The TGI (UO-31 renal) was 339 nM, the GI50 (ACHN renal) was 226 nM and the TGI (ACHN renal) was 11300 nM. The GI50 (HCC-2998 colon) was 361 nM, the TGI (HCC-2998 colon) was 9540 nM and the GI50 (HOP-62 NSCLC) was 270 nM. The TGI (HOP-62 NSCLC) was 9270 nM, the GI50 (MDA-MB-231 breast) was 110 nM and the TGI (MDA-MB-231 breast) was 14600 nM. It also gave a GI50 (BT-549 breast) of 145 nM, a TGI (BT-549 breast) of 5710 nM and a GI50 (DU-145 prostate) of 163 nM. For the same molecule, the TGI (DU-145 prostate) was 13300 nM, the GI50 (OVCAR-4 ovarian) was 316 nM and the TGI (OVCAR-4 ovarian) was 13300 nM. It also gave a GI50 (A498 renal) of 3650 nM and a TGI (A498 renal) of 14400 nM.
